For this experiment, the system named is S. cerevisiae Sic1-GFP degradation, flow cytometry time course. Briefly: inhibition of Sic1-GFP fusion degradation in yeast, secondary assay, flow cytometry, S. cerevisiae (AID 1313). As to conditions: stronger effect = higher value; for GFP expression remaining at 240 min: measured here: earlier time point. Background: A flow cytometer gives signals particle by particle.

The record followed here is PubChem BioAssay AID1313 (NMMLSC, 2008).

Calls of active or inactive are those of the source.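 Rule for the calls: active = compounds raising total GFP signal across six hours by more than 15% versus untreated cells; inactive = the rest.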 Peptide text beside a SMILES is read from it. * marks the point of attachment. Cbz = O=C(OCc1ccccc1)*

Consider `CC(=O)N1C(=O)C(=C2C=C(C)OC(C)=C2)c2ccccc21`, for which the GFP expression remaining at 360 min is 0.71% (inactive) and the GFP expression remaining at 240 min was 1.3%.
On the same counts, the results for `CC(C)C[C@@H](C=O)NC(=O)[C@H](CC(C)C)NC(=O)[C@H](CC(C)C)NC(=O)OCc1ccccc1` (Cbz-Leu-Leu-Leu-aldehyde) are 1.68% (inactive) and 3.24%.
